Assay results reported in patent publication US7713994B2 (Wyeth LLC, priority 2005, dated 2010).

Key:
cyclin D1/cdk 4 enzyme = target: T1, cyclin D1/cdk 4 enzyme (Homo sapiens, UniProt P11802); test: CDK4 ELISA kinase assay (phospho-Rb ser 795 detection); format: biochemical; settings: In Vitro Enzyme Assays, 200 μM ATP, read-out: CDK4 IC50
T1 construct: made in house; host or cells: Sf9 insect cells, recombinant baculovirus
Method in brief: (§1)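 Sf9-derived cyclin/CDK, 200 μM ATP, immobilized GST-Rb; 30° C/1 h. Detection: phospho-Ser795 Ab, HRP, TMB, OD450.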

cyclin E/CDK2 enzyme = target: T2, cyclin E/CDK2 enzyme (Homo sapiens, UniProt P24941); test: CDK2 ELISA kinase assay (phospho-Rb ser 795 detection); format: biochemical; settings: In Vitro Enzyme Assays, read-out: CDK2 IC50
T2 construct: made in house; host or cells: Sf9 insect cells, recombinant baculovirus
Method in brief: as §1

cyclin B/CDK1 enzyme = target: T3, cyclin B/CDK1 enzyme (Homo sapiens, UniProt P06493); test: CDK1 ELISA kinase assay (phospho-Rb ser 795 detection); format: biochemical; settings: In Vitro Enzyme Assays, read-out: CDK1 IC50
T3 construct: purchased New England BioLabs; host or cells: Sf9 insect cells, recombinant baculovirus
T3 sequence (P06493 whole entry): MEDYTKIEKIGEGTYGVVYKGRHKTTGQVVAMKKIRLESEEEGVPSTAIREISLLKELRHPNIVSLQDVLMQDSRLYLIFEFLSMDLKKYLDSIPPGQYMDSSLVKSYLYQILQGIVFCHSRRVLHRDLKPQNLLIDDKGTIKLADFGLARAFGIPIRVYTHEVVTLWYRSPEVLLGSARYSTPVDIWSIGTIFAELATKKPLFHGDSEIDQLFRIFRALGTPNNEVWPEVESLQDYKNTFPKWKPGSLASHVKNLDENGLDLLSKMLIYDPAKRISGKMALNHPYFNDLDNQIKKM
T3 sequence (P14635 whole entry partner): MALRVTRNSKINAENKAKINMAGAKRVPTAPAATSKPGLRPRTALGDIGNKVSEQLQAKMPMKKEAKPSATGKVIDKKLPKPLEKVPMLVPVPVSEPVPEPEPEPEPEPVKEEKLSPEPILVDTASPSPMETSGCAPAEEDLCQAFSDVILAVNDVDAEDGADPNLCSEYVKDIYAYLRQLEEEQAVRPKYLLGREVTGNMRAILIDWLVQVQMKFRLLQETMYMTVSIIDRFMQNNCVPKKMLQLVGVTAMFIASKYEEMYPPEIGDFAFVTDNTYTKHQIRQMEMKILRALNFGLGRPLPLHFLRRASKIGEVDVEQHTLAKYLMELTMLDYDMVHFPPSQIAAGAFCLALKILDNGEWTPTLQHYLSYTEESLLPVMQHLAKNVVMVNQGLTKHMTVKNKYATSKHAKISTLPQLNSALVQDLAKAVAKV
Method in brief: as §1

BT474 = test: Cytotoxicity assay (SRB), BT474; format: cell-based; settings: Homo sapiens, BT-474, 144 h, BT474 cells, 6 days, SRB; read-out: In Vitro Cellular Activity IC50 BT474
Method in brief: (§2)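 Seeding: BT474 12000, HCT-116 4000, LoVo 6000, MCF-7 6000 cells/well; overnight attachment, 37 °C, 7% CO2. Drug exposure 3 d (BT474 6 d), RPMI 1640 + 5% FBS. Readout: TCA fix, 0.4% SRB, Tris solubilisation, A540.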

HCT-116 = test: Cytotoxicity assay (SRB), HCT-116; format: cell-based; settings: Homo sapiens, HCT-116, 72 h, HCT116 cells, 3 days, SRB; read-out: In Vitro Cellular Activity IC50 HCT116
Method in brief: as §2

LoVo = test: Cytotoxicity assay (SRB), LoVo; format: cell-based; settings: Homo sapiens, LoVo, 72 h, LoVo cells, 3 days, SRB; read-out: In Vitro Cellular Activity IC50 LOVO
Method in brief: as §2

MCF-7 = test: Cytotoxicity assay (SRB), MCF-7; format: cell-based; settings: Homo sapiens, MCF7, 72 h, MCF-7 cells, 3 days, SRB; read-out: In Vitro Cellular Activity IC50 MCF-7
Method in brief: as §2

T1 sequence (P11802 whole entry, species assumed): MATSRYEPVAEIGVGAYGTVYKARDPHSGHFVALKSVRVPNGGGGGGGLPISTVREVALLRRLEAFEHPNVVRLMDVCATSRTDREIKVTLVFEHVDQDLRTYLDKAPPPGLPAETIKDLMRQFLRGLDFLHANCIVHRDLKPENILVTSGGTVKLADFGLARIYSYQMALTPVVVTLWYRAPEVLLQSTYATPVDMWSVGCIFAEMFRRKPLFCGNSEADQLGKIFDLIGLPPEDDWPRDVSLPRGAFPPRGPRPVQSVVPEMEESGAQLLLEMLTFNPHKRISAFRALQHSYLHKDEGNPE
T1 sequence (P24385 whole entry partner, species assumed): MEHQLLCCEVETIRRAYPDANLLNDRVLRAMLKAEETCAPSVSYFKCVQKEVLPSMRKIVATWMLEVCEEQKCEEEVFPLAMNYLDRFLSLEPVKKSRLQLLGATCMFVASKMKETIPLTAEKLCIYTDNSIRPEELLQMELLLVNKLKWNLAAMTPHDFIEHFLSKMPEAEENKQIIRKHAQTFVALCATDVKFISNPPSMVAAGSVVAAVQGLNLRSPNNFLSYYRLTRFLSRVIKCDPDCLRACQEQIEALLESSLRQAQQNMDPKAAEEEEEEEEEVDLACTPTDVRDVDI

SMILES | IC50 (cyclin D1/cdk 4 enzyme) [µM] | IC50 (cyclin E/CDK2 enzyme) [µM] | IC50 (cyclin B/CDK1 enzyme) [µM] | IC50 (BT474) [µM] | IC50 (HCT-116) [µM] | IC50 (LoVo) [µM] | IC50 (MCF-7) [µM]
COCC(C)N1CCN(c2ccc(N/C=C3\C(=O)NC(=O)c4ccc(I)cc43)cc2)CC1 (centres unmarked) [Example 399, (4Z)-6-Iodo-4-[({4-[4-(2-methoxy-1-methylethyl)piperazin-1-yl]phenyl}amino)methylene]isoquinoline-1,3(2H,4H)-dione] | 0.34 | > 50 | > 50 | 7.57 | 3 | 7 | 5.4
CC(CN(C)C)N1CCN(c2ccc(N/C=C3\C(=O)NC(=O)c4ccc(I)cc43)cc2)CC1 (centres unmarked) [Example 400, (4Z)-4-{[(4-{4-[2-(Dimethylamino)-1-methylethyl]piperazin-1-yl}phenyl)amino]methylene}-6-iodoisoquinoline-1,3(2H,4H)-dione] | 0.34 | > 50 | > 50 | 9.33 | 2.9 | 8.6 | 8.7
O=C1NC(=O)c2ccc(I)cc2/C1=C/Nc1ccc(N2CCN(CCO)CC2)cc1 [Example 401, (4Z)-4-[({4-[4-(2-Hydroxyethyl)piperazin-1-yl]phenyl}amino)methylene]-6-iodoisoquinoline-1,3(2H,4H)-dione] | 0.47 | > 50 | 23.1 | 4.45 | 2.6 | 6.7 | 5.1
CN(C)C/C=C/C(=O)N1CCCC1c1ccc(N/C=C2\C(=O)NC(=O)c3ccc(I)cc32)cc1 (centres unmarked) [Example 402, 4-({4-[1-(4-Dimethylamino-but-2-enoyl)-pyrrolidin-2-yl]-phenylamino}-methylene)-6-iodo-4H-isoquinoline-1,3-dione] | 2.9 | > 50 | > 50 | 7.1 | 4 | 6 | 7.6
O=C1NC(=O)c2ccc(-c3ccsc3)cc2/C1=C/Nc1ccc(C2CC=CCN2)cc1 (centres unmarked) [Example 404, 4-{[4-(1,2,3,6-Tetrahydro-pyridin-2-yl)-phenylamino]-methylene}-6-thiophen-3-yl-4H-isoquinoline-1,3-dione] | 0.1 | 14.4 | 25.3 | 3.1 | 1.6 | 3.1 | 7.3
O=C1NC(=O)c2ccc(I)cc2/C1=C/Nc1ccc(N2CCNCC2)nc1 [Example 410, (4Z)-6-Iodo-4-{[(6-piperazin-1-ylpyridin-3-yl)amino]methylene}isoquinoline-1,3(2H,4H)-dione] | 2.1 | 17.6 | 25.3 | 2.3 | 2.8 | 6.8 | 5.1
CCOC[C@@H]1CCCN1Cc1ccc(N/C=C2\C(=O)NC(=O)c3ccc(I)cc32)cc1 [Example 411, 4-{[4-(2-Ethoxymethyl-pyrrolidin-1-ylmethyl)-phenylamino]-methylene}-6-iodo-4H-isoquinoline-1,3-dione] | 0.7 | > 50 | > 50 | 0.45 | 3.8 | 3.5 | 1.6
CN(C)CC1CCCN1c1ccc(N/C=C2\C(=O)NC(=O)c3ccc(I)cc32)cc1F (centres unmarked) [Example 412, 4-{[4-(2-Dimethylaminomethyl-pyrrolidin-1-yl)-3-fluoro-phenylamino]-methylene}-6-iodo-4H-isoquinoline-1,3-dione] | 3.3 | > 50 | > 50 | 5.6 | 1.8 | 3.2 | 4.3
CC(C)N1CCN(c2ccc(N/C=C3\C(=O)NC(=O)c4ccc(I)cc43)cn2)CC1 [Example 413] | 0.19 | > 50 | > 50 | 5 | 1.9 | 3.3 | 5.8
CCN1CCN(c2ccc(N/C=C3\C(=O)NC(=O)c4ccc(I)cc43)cn2)CC1 [Example 414, (4Z)-4-({[6-(4-Ethylpiperazin-1-yl)pyridin-3-yl]amino}methylene)-6-iodoisoquinoline-1,3(2H,4H)-dione] | 0.5 | > 50 | > 50 | 6.2 | 2.4 | 6.2 | 6
O=C1NC(=O)c2ccc(I)cc2/C1=C/Nc1ccc(N2CCN(CC3CC3)CC2)nc1 [Example 415, (4Z)-4-[({6-[4-(Cyclopropylmethyl)piperazin-1-yl]pyridin-3-yl}amino)methylene]-6-iodoisoquinoline-1,3(2H,4H)-dione] | 1.5 | > 50 | > 50 | 2.9 | 1.2 | 2 | 3.6
CCN1CCN(c2ccc(N/C=C3\C(=O)NC(=O)c4ccc(-c5ccoc5)cc43)cn2)CC1 [Example 416, (4Z)-4-({[6-(4-Ethylpiperazin-1-yl)pyridin-3-yl]amino}methylene)-6-(3-furyl)isoquinoline-1,3(2H,4H)-dione] | 0.13 | > 50 | > 50 | 2.5 | 2.7 | 3.1 | 6.2
CC(C)N1CCN(c2ccc(N/C=C3\C(=O)NC(=O)c4ccc(-c5ccsc5)cc43)cn2)CC1 [Example 417, (4Z)-4-({[6-(4-Isopropylpiperazin-1-yl)pyridin-3-yl]amino}methylene)-6-(3-thienyl)isoquinoline-1,3(2H,4H)-dione] | 0.03 | > 50 | > 50 | 2.8 | 1.3 | 3.1 | 3.2
O=C1NC(=O)c2ccc(-c3ccsc3)cc2/C1=C/Nc1ccc(N2CCN(CC3CC3)CC2)nc1 [Example 418, (4Z)-4-[({6-[4-(Cyclopropylmethyl)piperazin-1-yl]pyridin-3-yl}amino)methylene]-6-(3-thienyl)isoquinoline-1,3(2H,4H)-dione] | 0.02 | > 50 | > 50 | 2.7 | 1.4 | 2.4 | 3.2
C=CCN1CCCC1c1ccc(N/C=C2\C(=O)NC(=O)c3ccc(I)cc32)cc1 (centres unmarked) [Example 419, 4-{[4-(1-Allyl-pyrrolidin-2-yl)-phenylamino]-methylene}-6-iodo-4H-isoquinoline-1,3-dione] | 0.77 | 31 | > 50 | 12.9 | 7 | 12 | 7.6
C=CCN1CCCC1c1ccc(N/C=C2\C(=O)NC(=O)c3ccc(-c4ccsc4)cc32)cc1 (centres unmarked) [Example 420, 4-{[4-(1-Allyl-pyrrolidin-2-yl)-phenylamino]-methylene}-6-thiophen-3-yl-4H-isoquinoline-1,3-dione] | 0.11 | > 50 | > 50 | 7.7 | 4 | 16.2 | 36.8
Nc1cnc(CN/C=C2\C(=O)NC(=O)c3ccc(I)cc32)cc1O [Example 424, 4-{[(5-Amino-4-hydroxy-pyridin-2-ylmethyl)-amino]-methylene}-6-iodo-4H-isoquinoline-1,3-dione] | 0.06 | 1.5 | 6.3 | 12.7 | > 50 | > 50 | > 50
C=CC(=O)Nc1cnc(CN/C=C2\C(=O)NC(=O)c3ccc(I)cc32)cc1O [Example 428, N-(4-Hydroxy-6-{[(6-iodo-1,3-dioxo-2,3-dihydro-1H-isoquinolin-4-ylidenemethyl)-amino]-methyl}-pyridin-3-yl)-acrylamide] | 0.13 | 0.7 | 6.4 | 0.07 | 0.77 | 0.65 | 1.67
CN(C)C(=O)C1CCN(c2ccc(N/C=C3\C(=O)NC(=O)c4ccc(I)cc43)cc2)CC1 [Example 429, 1-(4-{[(Z)-(6-Iodo-1,3-dioxo-2,3-dihydroisoquinolin-4(1H)-ylidene)methyl]amino}phenyl)-N,N-dimethylpiperidine-4-carboxamide] | 3 | > 50 | > 50 | 11.7 | 21 | 21.1 | > 50
NC(=O)C1CCN(c2ccc(N/C=C3\C(=O)NC(=O)c4ccc(I)cc43)cc2)CC1 [Example 430, 1-(4-{[(Z)-(6-Iodo-1,3-dioxo-2,3-dihydroisoquinolin-4(1H)-ylidene)methyl]amino}phenyl)piperidine-4-carboxamide] | 2.3 | 15.4 | 19.3 | 13.8 | 5.6 | 14.9 | 11.7
